In US20090320166A1, “Synergistic Insecticide And Fungicidal Mixtures” (BAYER CROPSCIENCE AG, priority 2006, published 2009):

Columns and labels:
[1] = test system: Myzus persicae; experiment: Myzus persicae test (cabbage leaf dip); format: in vivo; conditions: 200 ppm
Text: Solvent: 7 parts by weight of dimethylformamide

[2] = test system: Phaedon cochleariae; experiment: Phaedon cochleariae larvae test (cabbage leaf dip); conditions: Table B1, 200 ppm, mustard beetle larvae on cabbage leaves

Cn1cc(C(=O)Nc2ccccc2C2CC2C2CC2)c(C(F)F)n1 (stereo not drawn) [compound (I-4)]
0%: Kill in % after 1d ([1]; Table A1, green peach aphid on cabbage leaves, after 1 d) | Kill in % after 6d ([1]; Table A2, after 6 d) | Kill in % after 6d [2]
